What was measured:
[1] = system: Cabbage Looper (Trichoplusia ni) ("CL"), second instar larvae; assay: Bioassay on cabbage looper (CL), 128-well diet tray assay; format: in vivo; conditions: Trichoplusia ni, read-out: CL (Biological Results, rating)
Summary of the method: (§1)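 Second-instar larvae on diet in 128-well trays, covered and held at 25° C, 14:10 light-dark, for five to seven days. Percent mortality scored per well and averaged over eight wells; activity reported as a rating category.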

[2] = system: Beet Armyworm (Spodoptera exigua) ("BAW"), second instar larvae; assay: Bioassay on beet armyworm (BAW), 128-well diet tray assay; format: in vivo; conditions: Spodoptera exigua, read-out: BAW (Biological Results, rating)
Summary of the method: as §1

SMILES | pest or weed control at 50 µg/cm2 [1] [%] | pest or weed control at 50 µg/cm2 [2] [%]
CC(C)c1cc(-c2ncn(-c3ccc(OC(F)(F)F)cc3)n2)ccc1NC(=O)/N=C1\SCC(=O)N1c1cc(N(C)C)ccc1OCCC(F)(F)F [Compound J111, (Z)-1-(3-(5-(Dimethylamino)-2-(3,3,3-trifluoropropoxy)phenyl)-4-oxothiazolidin-2-ylidene)-3-(2-isopropyl-4-(1-(4-(trifluoromethoxy)phenyl)-1H-1,2,4-triazol-3-yl)phenyl)urea] | 50 to 100 | 50 to 100
CC(C)c1cc(N(C)C)ccc1N1C(=O)CS/C1=N\C(=O)Nc1ccc(-c2ncn(-c3ccc(OC(F)(F)F)cc3)n2)cc1F [Compound J112, (Z)-1-(3-(4-(Dimethylamino)-2-isopropylphenyl)-4-oxothiazolidin-2-ylidene)-3-(2-fluoro-4-(1-(4-(trifluoromethoxy)phenyl)-1H-1,2,4-triazol-3-yl)phenyl)urea] | 50 to 100 | 50 to 100
Cc1ccc(C(C)C)c(N2C(=O)CS/C2=N\C(=O)Nc2ccc(-c3ncn(-c4ccc(OC(F)(F)F)cc4)n3)cc2C(F)(F)F)c1 [Compound J114, (Z)-1-(3-(2-Isopropyl-5-methylphenyl)-4-oxothiazolidin-2-ylidene)-3-(4-(1-(4-(trifluoromethoxy)phenyl)-1H-1,2,4-triazol-3-yl)-2-(trifluoromethyl)phenyl)urea] | 50 to 100 | 50 to 100
Cc1ccc(OCC(F)(F)F)c(N2C(=O)CS/C2=N\C(=O)Nc2ccc(-c3ncn(-c4ccc(OC(F)(F)F)cc4)n3)cc2C(F)(F)F)c1 [Compound J115, (Z)-1-(3-(5-Methyl-2-(2,2,2-trifluoroethoxy)phenyl)-4-oxothiazolidin-2-ylidene)-3-(4-(1-(4-(trifluoromethoxy)phenyl)-1H-1,2,4-triazol-3-yl)-2-(trifluoromethyl)phenyl)urea] | 50 to 100 | 50 to 100
COC(C)c1ccc(C)cc1N1C(=O)CS/C1=N\C(=O)Nc1ccc(-c2ncn(-c3ccc(OC(F)(F)F)cc3)n2)cc1C(F)(F)F (stereo not shown) [Compound J117, (Z)-1-(3-(2-(1-Methoxyethyl)-5-methylphenyl)-4-oxothiazolidin-2-ylidene)-3-(4-(1-(4-(trifluoromethoxy)phenyl)-1H-1,2,4-triazol-3-yl)-2-(trifluoromethyl)phenyl)urea] | 50 to 100 | 50 to 100
CN(C)c1ccc(OCCC(F)(F)F)c(N2C(=O)CS/C2=N\C(=O)Nc2ccc(-c3ncn(-c4ccc(OC(F)(F)F)cc4)n3)cc2C(F)(F)F)c1 [Compound J118, (Z)-1-(3-(5-(Dimethylamino)-2-(3,3,3-trifluoropropoxy)phenyl)-4-oxothiazolidin-2-ylidene)-3-(4-(1-(4-(trifluoromethoxy)phenyl)-1H-1,2,4-triazol-3-yl)-2-(trifluoromethyl)phenyl)urea] | 50 to 100 | 50 to 100
Cc1ccc(OCC(F)(F)F)c(N2C(=O)CS/C2=N\C(=O)Nc2ccc(-c3ncn(-c4cccc(OC(F)(F)F)c4)n3)cc2F)c1 [Compound J121, (Z)-1-(2-Fluoro-4-(1-(3-(trifluoromethoxy)phenyl)-1H-1,2,4-triazol-3-yl)phenyl)-3-(3-(5-methyl-2-(2,2,2-trifluoroethoxy)phenyl)-4-oxothiazolidin-2-ylidene)urea] | 50 to 100 | 0 to 50
CCOC(C)c1ccc(C)cc1N1C(=O)CS/C1=N\C(=O)Nc1ccc(-c2ncn(-c3ccc(OC(F)(F)F)cc3)n2)cc1F (stereo not shown) [Compound J124, (Z)-1-(3-(2-(1-Ethoxyethyl)-5-methylphenyl)-4-oxothiazolidin-2-ylidene)-3-(2-fluoro-4-(1-(4-(trifluoromethoxy)phenyl)-1H-1,2,4-triazol-3-yl)phenyl)urea] | 50 to 100 | 50 to 100

— US20230077362A1 (CORTEVA AGRISCIENCE LLC, priority 2019, published 2023)
